Earlier results on one compound are cited in PMC7327225 (Hepatology Communications, 2020).

For the data set, the system named is β1‐containing AMPK trimers. Particulars: explains failure to activate AMPK in muscle.

In the case of `O=C(O)c1c[nH]c2cc(Cl)c(-c3ccc(C4(O)CCC4)cc3)cc12` [PF‐06409577], the AMPK isoform selectivity entry is “selectivity toward β1‐containing AMPK trimers”.
